# Measurements taken from patent publication US20090018134A1, “Compounds - 945” (AstraZeneca AB, priority 2007, published 2009).
# Target: T1, mTOR (Homo sapiens, UniProt P42345)
# T1 construct: FLAG; made in house
# Test: In Vitro mTOR Kinase Assay (Echo), Test (a)(ii)
# Assay type: biochemical
# Conditions: table of enzyme assay Test (a)(ii); read-out: Test (a)(ii) IC50
# Summary of the method: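 FLAG-tagged truncated mTOR (residues 1362-2549), expressed in HEK293 and purified via the FLAG tag, phosphorylated a biotinylated peptide over 2 hours at room temperature. EDTA stopped the reaction. Phospho-T389 was detected overnight by AlphaScreen using the p70 S6K T389 antibody with Protein A/streptavidin beads; IC50 reported.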
# T1 sequence (P42345 1362-2549): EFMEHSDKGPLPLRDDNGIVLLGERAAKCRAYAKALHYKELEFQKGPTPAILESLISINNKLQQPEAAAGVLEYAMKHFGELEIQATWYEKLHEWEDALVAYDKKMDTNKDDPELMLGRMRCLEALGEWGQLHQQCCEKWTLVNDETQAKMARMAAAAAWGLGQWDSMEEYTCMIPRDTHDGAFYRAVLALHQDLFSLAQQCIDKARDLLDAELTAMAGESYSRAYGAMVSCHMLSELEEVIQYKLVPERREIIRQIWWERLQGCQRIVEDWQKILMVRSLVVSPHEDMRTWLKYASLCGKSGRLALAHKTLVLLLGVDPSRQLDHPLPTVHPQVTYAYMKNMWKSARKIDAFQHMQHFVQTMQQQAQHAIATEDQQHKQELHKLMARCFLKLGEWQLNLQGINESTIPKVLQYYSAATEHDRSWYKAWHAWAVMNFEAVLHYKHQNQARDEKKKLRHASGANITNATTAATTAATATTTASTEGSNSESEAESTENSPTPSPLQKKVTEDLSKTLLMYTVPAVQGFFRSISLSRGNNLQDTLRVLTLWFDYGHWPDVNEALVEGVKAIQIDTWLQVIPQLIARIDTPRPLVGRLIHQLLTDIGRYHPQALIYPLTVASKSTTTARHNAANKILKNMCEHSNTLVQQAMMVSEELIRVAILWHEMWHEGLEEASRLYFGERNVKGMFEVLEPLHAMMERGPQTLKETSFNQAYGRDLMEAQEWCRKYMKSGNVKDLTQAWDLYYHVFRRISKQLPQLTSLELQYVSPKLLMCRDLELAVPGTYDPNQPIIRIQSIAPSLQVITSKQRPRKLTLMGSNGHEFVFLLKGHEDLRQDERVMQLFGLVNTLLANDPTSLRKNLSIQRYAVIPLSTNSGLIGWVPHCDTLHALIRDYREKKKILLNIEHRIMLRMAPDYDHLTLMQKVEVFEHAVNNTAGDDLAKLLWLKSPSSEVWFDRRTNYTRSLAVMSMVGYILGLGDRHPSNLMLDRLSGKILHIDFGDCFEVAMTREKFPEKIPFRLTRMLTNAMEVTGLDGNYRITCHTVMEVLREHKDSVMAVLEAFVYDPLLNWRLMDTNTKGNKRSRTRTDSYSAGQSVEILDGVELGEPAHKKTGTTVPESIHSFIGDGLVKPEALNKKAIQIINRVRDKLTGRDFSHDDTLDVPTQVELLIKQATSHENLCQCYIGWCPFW
row,IC50,SMILES
1,4.11 nM,"C[C@H]1COCCN1c1cc(C2(S(C)(=O)=O)CC2)nc(-c2ccc(NC(=S)NC3CC3)cc2)n1 [Example 35d, 3-cyclopropyl-1-[4-[4-[(3S)-3-methylmorpholin-4-yl]-6-(1-methylsulfonylcyclopropyl)pyrimidin-2-yl]phenyl]thiourea]"
2,142 nM,"C[C@H]1COCCN1c1cc(C2(S(=O)(=O)CCCO)CC2)nc(-c2ccc(NC(=O)NC3(CO)CC3)cc2)n1 [Example 36a, 3-[1-(hydroxymethyl)cyclopro-pyl]-1-[4-[4-[1-(3-hydroxypropylsulfonyl)cyclopropyl]-6-[(3S)-3-methylmorpholin-4-yl]pyrimidin-2-yl]phenyl]urea]"
3,74.9 nM,"C[C@H]1COCCN1c1cc(C2(S(=O)(=O)c3ccc(F)cc3)CC2)nc(-c2ccc(NC(=O)NCc3ncc[nH]3)cc2)n1 [Example 36aa, 1-[4-[4-[1-(4-fluorophenyl)sulfonylcyclopropyl]-6-[(3S)-3-methylmorpholin-4-yl]pyrimidin-2-yl]phenyl]-3-(1H-imidazol-2-ylmethyl)urea]"
4,11 nM,"C[C@H]1COCCN1c1cc(C2(S(=O)(=O)c3ccccn3)CCCC2)nc(-c2ccc(NC(=O)NC3CC3)cc2)n1 [Example 36ab, 3-cyclopropyl-1-[4-[4-[(3S)-3-methylmorpholin-4-yl]-6-(1-pyridin-2-ylsulfonylcyclopentyl)pyrimidin-2-yl]phenyl]urea]"
5,4.41 nM,"C[C@H]1COCCN1c1cc(C2(S(=O)(=O)c3ccccn3)CCCC2)nc(-c2ccc(NC(=O)NCCO)cc2)n1 [Example 36ac, 3-(2-hydroxyethyl)-1-[4-[4-[(3S)-3-methylmorpholin-4-yl]-6-(1-pyridin-2-ylsulfonylcyclopentyl)pyrimidin-2-yl]phenyl]urea]"
6,32.3 nM,"C[C@H]1COCCN1c1cc(C2(S(=O)(=O)c3ccccn3)CCCC2)nc(-c2ccc(NC(=O)NCCC#N)cc2)n1 [Example 36ad, 3-(2-cyanoethyl)-1-[4-[4-[(3S)-3-methylmorpholin-4-yl]-6-(1-pyridin-2-ylsulfonylcyclopentyl)pyrimidin-2-yl]phenyl]urea]"
7,15.1 nM,"C[C@H]1COCCN1c1cc(C2(S(=O)(=O)c3ccccn3)CCCC2)nc(-c2ccc(NC(=O)NCCCO)cc2)n1 [Example 36ae, 3-(3-hydroxypropyl)-1-[4-[4-[(3S)-3-methylmorpholin-4-yl]-6-(1-pyridin-2-ylsulfonylcyclopentyl)pyrimidin-2-yl]phenyl]urea]"
8,2.75 nM,"C[C@H]1COCCN1c1cc(C2(S(=O)(=O)c3ccccn3)CCC2)nc(-c2ccc(NC(=O)NC3CC3)cc2)n1 [Example 36af, 3-cyclopropyl-1-[4-[4-[(3S)-3-methylmorpholin-4-yl]-6-(1-pyridin-2-ylsulfonylcyclobutyl)pyrimidin-2-yl]phenyl]urea]"
9,1.3 nM,"CNC(=O)Nc1ccc(-c2nc(N3CCOC[C@@H]3C)cc(C3(S(=O)(=O)c4ccccn4)CCC3)n2)cc1 [Example 36ag, 3-methyl-1-[4-[4-[(3S)-3-methylmorpholin-4-yl]-6-(1-pyridin-2-ylsulfonylcyclobutyl)pyrimidin-2-yl]phenyl]urea]"
10,2.47 nM,"C[C@H]1COCCN1c1cc(C2(S(=O)(=O)c3ccccn3)CCC2)nc(-c2ccc(NC(=O)NCCO)cc2)n1 [Example 36ah, 3-(2-hydroxyethyl)-1-[4-[4-[(3S)-3-methylmorpholin-4-yl]-6-(1-pyridin-2-ylsulfonylcyclobutyl)pyrimidin-2-yl]phenyl]urea]"
11,5.61 nM,"C[C@H]1COCCN1c1cc(C2(S(=O)(=O)c3ccccn3)CCC2)nc(-c2ccc(NC(=O)NCCC#N)cc2)n1 [Example 36ai, 3-(2-cyanoethyl)-1-[4-[4-[(3S)-3-methylmorpholin-4-yl]-6-(1-pyridin-2-ylsulfonylcyclobutyl)pyrimidin-2-yl)phenyl]urea]"
12,2.45 nM,"C[C@H]1COCCN1c1cc(C2(S(=O)(=O)c3ccccn3)CCC2)nc(-c2ccc(NC(=O)NCc3ncc[nH]3)cc2)n1 [Example 36ak, 3-(1H-imidazol-2-ylmethyl)-1-[4-[4-[(3S)-3-methylmorpholin-4-yl]-6-(1-pyridin-2-ylsulfonylcyclobutyl)pyrimidin-2-yl]phenyl]urea]"
13,10.4 nM,"O=C(Nc1ccc(-c2nc(N3CCOCC3)cc(C3(S(=O)(=O)c4ccc(F)cc4)CC3)n2)cc1)Nc1ncns1 [Example 36an, 1-[4-[4-[1-(4-fluorophenyl)sulfonylcyclopropyl]-6-morpholin-4-ylpyrimidin-2-yl]phenyl]-3-(1,2,4-thiadiazol-5-yl)urea]"
14,14 nM,"CCNC(=O)Nc1ccc(-c2nc(N3CCOCC3)cc(C3(S(=O)(=O)c4ccc(F)cc4)CC3)n2)cc1 [Example 36ao, 1-ethyl-3-[4-[4-[1-(4-fluorophenyl)sulfonylcyclopropyl]-6-morpholin-4-ylpyrimidin-2-yl]phenyl]urea]"
15,15.6 nM,"CNC(=O)Nc1ccc(-c2nc(N3CCOCC3)cc(C3(S(=O)(=O)c4ccc(F)cc4)CC3)n2)cc1 [Example 36ap, 3-[4-[4-[1-(4-fluorophenyl)sulfonylcyclopropyl]-6-morpholin-4-ylpyrimidin-2-yl]phenyl]-1-methylurea]"
16,15.7 nM,"Cn1cc(NC(=O)Nc2ccc(-c3nc(N4CCOCC4)cc(C4(S(=O)(=O)c5ccc(F)cc5)CC4)n3)cc2)cn1 [Example 36aq, 3-[4-[4-[1-(4-fluorophenyl)sulfonylcyclopropyl]-6-morpholin-4-ylpyrimidin-2-yl]phenyl]-1-(1-methylpyrazol-4-yl)urea]"
17,9.45 nM,"O=C(NCCO)Nc1ccc(-c2nc(N3CCOCC3)cc(C3(S(=O)(=O)c4ccncc4)CC3)n2)cc1 [Example 36ar, 3-(2-hydroxyethyl)-1-[4-[4-morpholin-4-yl-6-(1-pyridin-4-ylsulfonylcyclopropyl)pyrimidin-2-yl]phenyl]urea]"
18,9.11 nM,"Cn1cc(NC(=O)Nc2ccc(-c3nc(N4CCOCC4)cc(C4(S(=O)(=O)c5ccncc5)CC4)n3)cc2)cn1 [Example 36as, 1-(1-methylpyrazol-4-yl)-3-[4-[4-morpholin-4-yl-6-(1-pyridin-4-ylsulfonylcyclopropyl)pyrimidin-2-yl]phenyl]urea]"
19,6.39 nM,"CNC(=O)Nc1ccc(-c2nc(N3CCOCC3)cc(C3(S(=O)(=O)c4ccncc4)CC3)n2)cc1 [Example 36at, 1-methyl-3-[4-[4-morpholin-4-yl-6-(1-pyridin-4-ylsulfonylcyclopropyl)pyrimidin-2-yl]phenyl]urea]"
20,12.1 nM,"CCNC(=O)Nc1ccc(-c2nc(N3CCOCC3)cc(C3(S(=O)(=O)c4ccncc4)CC3)n2)cc1 [Example 36au, 1-ethyl-3-[4-[4-morpholin-4-yl-6-(1-pyridin-4-ylsulfonylcyclopropyl)pyrimidin-2-yl]phenyl]urea]"
21,9.95 nM,"O=C(Nc1ccc(-c2nc(N3CCOCC3)cc(C3(S(=O)(=O)c4ccncc4)CC3)n2)cc1)NC1CC1 [Example 36av, 3-cyclopropyl-1-[4-[4-morpholin-4-yl-6-(1-pyridin-4-ylsulfonylcyclopropyl)pyrimidin-2-yl]phenyl]urea]"
22,16.4 nM,"N#CCCNC(=O)Nc1ccc(-c2nc(N3CCOCC3)cc(C3(S(=O)(=O)c4ccncc4)CC3)n2)cc1 [Example 36aw, 3-(2-cyanoethyl)-1-[4-[4-morpholin-4-yl-6-(1-pyridin-4-ylsulfonylcyclopropyl)pyrimidin-2-yl]phenyl]urea]"
